# Source: patent US20220323411A1, “COMPOSITIONS FOR THE TREATMENT OF SOLID TUMORS” (Raziel Therapeutics Ltd., priority 2019, published 2022)
# Marks after values point to notes of the source that are not given here.
# Legend:
# A549 cells [1] = assay: Xenograft Study 1: A549 subcutaneous tumors in nude mice, intratumoral injection; format: in vivo; details: for Tumor volume 3 weeks after injection (mm^3 ± S.E.M.): first dose day 25, double dose day 32, mean, N=10, initial volume 496; for Reduction in tumor volume vs. vehicle (%): 3 weeks after injection
# Procedure: A549 cells were injected subcutaneously to nude mice and allowed to grow to an estimated tumor volume of about 500 mm^3 as determined by caliper. The mice were divided into four groups (N=10 per group), dosed twice via intratumoral injection with either a vehicle (comprising water for injection, benzyl alcohol, propylene glycol, and Tween-80) or with 1 mg, 2.5 mg, or 5 mg of 5-(3, 6-dibromo-9H-carbazol-9-yl)-N,N,N-trimethylpentan-1-aminium chloride according to the experimental design shown in Table 1 below:
# (§1) For three weeks post-injection, tumor size was determined by caliper and tumor volume was calculated. Mean tumor volumes for the various cohorts are summarized in Table 2 below and graphically in FIG. 1 (arrows indicate treatment days), while the mice's change in body weight is summarized in FIG. 2.
# A549 cells [2] = assay: Xenograft Study 2: A549 subcutaneous tumors in nude mice, intratumoral injection; format: in vivo
# Procedure: A549 cells were injected subcutaneously to nude mice and allowed to grow to an estimated tumor volume of about 300 mm^3 as determined by caliper. The mice were divided into three groups (N=10 per group), dosed three times via intratumoral injection with either a vehicle (comprising water for injection, benzyl alcohol, propylene glycol, and Tween-80) or with 5 mg of […])-N,N,N-trimethylpentan-1-aminium chloride, or not injected at all, according to the experimental design shown in Table 3 below:
# as §1, with “Median” for “Mean”, “4” for “2”, “3” for “1”, “4.” for “2.”
# [3] = 5 mg intratumoral, dosed three times
structure (smiles),measurement,setting,value
"C[N+](C)(C)CCCCCn1c2ccc(Br)cc2c2cc(Br)ccc21 [Test Compound, 5-(3,6-dibromo-9H-carbazol-9-yl)-N,N,N-trimethylpentan-1-aminium chloride]",Tumor volume 3 weeks after injection (mm^3 ± S.E.M.),A549 cells [1]; 1 mg/mouse intratumoral,1753 (±80) mm^3
same,Reduction in tumor volume vs. vehicle (%),"A549 cells [1]; 1 mg/mouse intratumoral, P-value vs. vehicle 0.86",7.7%
same,Tumor volume 3 weeks after injection (mm^3 ± S.E.M.),A549 cells [1]; 2.5 mg/mouse intratumoral,1512 (±149) mm^3
same,Reduction in tumor volume vs. vehicle (%),"A549 cells [1]; 2.5 mg/mouse intratumoral, P-value vs. vehicle 0.17",20.4%
same,Effect on mouse body weight,"A549 cells [1]; 5 mg intratumoral, dosed twice",did not affect mouse body weight
same,Effect on tumor size,"A549 cells [1]; 5 mg intratumoral, dosed twice",significantly reduced tumor size
same,Tumor volume 3 weeks after injection (mm^3 ± S.E.M.),A549 cells [1]; 5 mg/mouse intratumoral,1309 (±229) mm^3
same,Reduction in tumor volume vs. vehicle (%),"A549 cells [1]; 5 mg/mouse intratumoral, P-value vs. vehicle 0.03",31.1* %
same,Effect on mouse body weight,A549 cells [2]; [3],did not affect mouse body weight
same,Effect on tumor size,A549 cells [2]; [3],significantly reduced tumor size
same,Reduction in tumor volume vs. non-injected group (%),"A549 cells [2]; 5 mg/mouse intratumoral once a week for 3 weeks, P-value vs. non-injected group 0.02",46* %
same,Tumor volume 3 weeks after injection (median),"A549 cells [2]; 5 mg/mouse intratumoral once a week for 3 weeks, median, N=10, initial volume 287",648 mm³
